Measurements: ChEMBL document CHEMBL1201862, “PubChem BioAssay data set” (2004)
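Interpolation was linear, between the two tested concentrations surrounding the appropriate level; five concentrations were tested over 48 hours in 96-well plates. Abbreviation: GI50, concentration required for 50% inhibition of growth.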 Activity calls are given as the source filed them. No stated cut-off is given here; in the data, active = GI50 up to about 1.1 µM and inactive = higher.

Experiments:
Assay in all cases: NCI tumour cell line growth inhibition, 48 h
MDA-N = test system: MDA-N
SK-MEL-28 = test system: SK-MEL-28
UACC-257 = test system: UACC-257
SK-OV-3 = test system: SK-OV-3
A549 = test system: A549
SN12C = test system: SN12C
U-251 = test system: U-251
SW-620 = test system: SW-620
SR = test system: SR
HL-60 = test system: HL-60
SF-295 = test system: SF-295
RPMI-8226 = test system: RPMI-8226
K562 = test system: K562
UACC-62 = test system: UACC-62
SNB-75 = test system: SNB-75
NCI-H522 = test system: NCI-H522
DU-145 = test system: DU-145
OVCAR-4 = test system: OVCAR-4
SNB-19 = test system: SNB-19
COLO 205 = test system: COLO 205
MDA-MB-435 = test system: MDA-MB-435
PC-3 = test system: PC-3
LOX IMVI = test system: LOX IMVI
HCC 2998 = test system: HCC 2998
UO-31 = test system: UO-31
T47D = test system: T47D
OVCAR-5 = test system: OVCAR-5
MOLT-4 = test system: MOLT-4
HOP-92 = test system: HOP-92
MDA-MB-231 = test system: MDA-MB-231
KM12 = test system: KM12
OVCAR-3 = test system: OVCAR-3
SF-539 = test system: SF-539
HOP-62 = test system: HOP-62
BT-549 = test system: BT-549
HCT-116 = test system: HCT-116
786-0 = test system: 786-0
SF-268 = test system: SF-268
SK-MEL-5 = test system: SK-MEL-5
NCI-H23 = test system: NCI-H23
HCT-15 = test system: HCT-15
M14 = test system: M14
IGROV-1 = test system: IGROV-1
CCRF-CEM = test system: CCRF-CEM
HT-29 = test system: HT-29
TK-10 = test system: TK-10
NCI-H460 = test system: NCI-H460
MCF7 = test system: MCF7
EKVX = test system: EKVX
OVCAR-8 = test system: OVCAR-8
RXF 393 = test system: RXF 393
NCI-H226 = test system: NCI-H226
ACHN = test system: ACHN
NCI/ADR-RES = test system: NCI/ADR-RES
SK-MEL-2 = test system: SK-MEL-2
Malme-3M = test system: Malme-3M
A498 = test system: A498
CAKI-1 = test system: CAKI-1
Hs-578T = test system: Hs-578T

Measured: GI50

CCOc1ncn(-c2ccc(NC(=S)NC34CC5CC(CC(C5)C3)C4)cc2)n1
inactive: MDA-N > 100 µM | SK-MEL-28 61.8 µM | UACC-257 > 100 µM | SK-OV-3 33.2 µM | A549 7.24 µM | SN12C > 100 µM | U-251 > 10 µM | SW-620 > 100 µM | SR > 100 µM | HL-60 > 100 µM | SF-295 48.4 µM | RPMI-8226 > 100 µM | K562 > 100 µM | UACC-62 38 µM | SNB-75 25.4 µM | NCI-H522 99.1 µM | DU-145 > 100 µM | OVCAR-4 22.3 µM | SNB-19 46.1 µM | COLO 205 > 100 µM | MDA-MB-435 > 100 µM | PC-3 > 100 µM | LOX IMVI > 100 µM | HCC 2998 > 100 µM | UO-31 > 100 µM | T47D > 100 µM | OVCAR-5 > 100 µM | MOLT-4 > 100 µM | HOP-92 25 µM | MDA-MB-231 76.4 µM | KM12 8.47 µM | OVCAR-3 > 100 µM | SF-539 > 100 µM | HOP-62 35.2 µM | BT-549 > 100 µM | HCT-116 68.4 µM | 786-0 13.2 µM | SF-268 > 100 µM | SK-MEL-5 58.5 µM | NCI-H23 > 100 µM | M14 61.9 µM | IGROV-1 > 100 µM | CCRF-CEM > 100 µM | HT-29 80.5 µM | TK-10 59.2 µM | NCI-H460 53.5 µM | MCF7 > 100 µM | EKVX > 100 µM | OVCAR-8 22.8 µM
> 100 µM: HCT-15

O=C(OCC1CC(C2(O)CCCCC2)C(=O)O1)c1ccccc1 (configuration not stated)
> 100 µM: HCT-15
inactive: SK-MEL-28 > 100 µM | UACC-257 > 100 µM | SK-OV-3 > 100 µM | A549 > 100 µM | SN12C > 100 µM | U-251 > 100 µM | SW-620 > 100 µM | SR > 100 µM | SF-295 > 100 µM | RPMI-8226 > 100 µM | K562 > 100 µM | UACC-62 > 100 µM | SNB-75 > 100 µM | NCI-H522 > 100 µM | DU-145 > 100 µM | RXF 393 > 100 µM | OVCAR-4 > 100 µM | SNB-19 > 100 µM | COLO 205 > 100 µM | NCI-H226 > 100 µM | MDA-MB-435 > 100 µM | PC-3 > 100 µM | LOX IMVI > 100 µM | ACHN > 100 µM | HCC 2998 > 100 µM | UO-31 55.8 µM | OVCAR-5 > 100 µM | MOLT-4 > 100 µM | NCI/ADR-RES > 100 µM | HOP-92 5.5 µM | MDA-MB-231 > 100 µM | KM12 > 100 µM | OVCAR-3 > 100 µM | SF-539 > 100 µM | HOP-62 > 100 µM | BT-549 > 100 µM | HCT-116 > 100 µM | 786-0 > 100 µM | SF-268 > 100 µM | SK-MEL-2 > 100 µM | Malme-3M > 100 µM | SK-MEL-5 > 100 µM | A498 > 100 µM | CAKI-1 > 100 µM | NCI-H23 > 100 µM | M14 > 100 µM | IGROV-1 > 100 µM | CCRF-CEM > 100 µM | HT-29 > 100 µM | TK-10 > 100 µM | NCI-H460 71.8 µM | MCF7 > 100 µM | EKVX > 100 µM | OVCAR-8 > 100 µM

CCNC(=S)N/N=C/c1cc(OC)ccc1O
inactive: MDA-N > 100 µM | SK-MEL-28 > 100 µM | UACC-257 > 100 µM | SK-OV-3 > 100 µM | A549 52.8 µM | SN12C > 100 µM | U-251 61.4 µM | SW-620 > 100 µM | SR 69.5 µM | HL-60 > 100 µM | SF-295 70.3 µM | K562 97.9 µM | UACC-62 99.1 µM | SNB-75 > 100 µM | NCI-H522 65.8 µM | DU-145 > 100 µM | RXF 393 > 100 µM | OVCAR-4 33.7 µM | SNB-19 > 100 µM | Hs-578T > 100 µM | COLO 205 > 100 µM | NCI-H226 > 100 µM | MDA-MB-435 64.6 µM | PC-3 56.2 µM | LOX IMVI 99.3 µM | ACHN 66.7 µM | HCC 2998 > 100 µM | UO-31 7.01 µM | T47D 24.3 µM | OVCAR-5 > 100 µM | MOLT-4 67.1 µM | NCI/ADR-RES 83.6 µM | HOP-92 45.1 µM | MDA-MB-231 > 100 µM | KM12 88.1 µM | OVCAR-3 6.38 µM | SF-539 > 100 µM | HOP-62 > 100 µM | HCT-116 85.5 µM | 786-0 67.1 µM | SF-268 8.43 µM | SK-MEL-2 > 100 µM | Malme-3M > 100 µM | SK-MEL-5 > 100 µM | NCI-H23 > 100 µM | M14 > 100 µM | IGROV-1 82.4 µM | CCRF-CEM 66.5 µM | HT-29 > 100 µM | TK-10 > 100 µM | NCI-H460 35.2 µM | MCF7 5.74 µM | EKVX 89.1 µM | OVCAR-8 > 100 µM
47.6 µM: HCT-15

C=C1C(=O)CC2C1CC(=O)/C(C)=C/CCC(C)(O)C2O (configuration not stated)
4.9 µM: HCT-15
inactive: MDA-N 1.48 µM | SK-MEL-28 14.9 µM | SK-OV-3 2.84 µM | A549 27.3 µM | SN12C 2.29 µM | U-251 10.8 µM | SW-620 7.26 µM | SR 7.91 µM | HL-60 4.41 µM | SF-295 27.4 µM | RPMI-8226 1.41 µM | K562 2.19 µM | SNB-75 11.8 µM | NCI-H522 1.5 µM | DU-145 8.77 µM | RXF 393 6.67 µM | OVCAR-4 10.9 µM | SNB-19 > 54.3 µM | Hs-578T 5.4 µM | COLO 205 2.03 µM | NCI-H226 30.9 µM | MDA-MB-435 6.55 µM | LOX IMVI 5.47 µM | ACHN 2.37 µM | HCC 2998 7.74 µM | UO-31 11.7 µM | T47D 1.74 µM | OVCAR-5 17.5 µM | MOLT-4 1.57 µM | NCI/ADR-RES 8.2 µM | HOP-92 8.67 µM | KM12 13.8 µM | OVCAR-3 7.16 µM | HOP-62 26.7 µM | HCT-116 3.86 µM | 786-0 4.55 µM | SF-268 18.1 µM | Malme-3M 1.36 µM | SK-MEL-5 6.79 µM | A498 1.19 µM | CAKI-1 1.55 µM | NCI-H23 8.17 µM | M14 > 25.2 µM | IGROV-1 10.6 µM | CCRF-CEM 3.44 µM | HT-29 14.6 µM | NCI-H460 2.38 µM | EKVX 18.7 µM | OVCAR-8 4.3 µM
active: UACC-257 0.708 µM | UACC-62 0.603 µM | PC-3 0.853 µM | MDA-MB-231 1.07 µM | SK-MEL-2 0.986 µM | TK-10 0.562 µM | MCF7 0.249 µM
